Experimental data as given in the CheMixHub ionic liquid set.

Test: xn = mol fraction of the nth substance listed
Conditions: for viscosity: 101 kPa; for electrical conductivity: 100 kPa, frequency 0.005 MHz

OC1OC[C@@H](O)[C@H](O)[C@H]1O (stereo not given in full) + O + CCCCCCCCCC[n+]1ccn(C)c1.[Br-]
298.15 K
Conditions | viscosity [mPa·s]
x1 = 0.0001909, x3 = 0.001813 | 0.998
x1 = 0.0001999, x3 = 0.003572 | 1.112
x1 = 0.0002133, x3 = 0.005429 | 1.247
x1 = 0.0002286, x3 = 0.007128 | 1.391
x1 = 0.0003836, x3 = 0.001812 | 1.001
x1 = 0.0003893, x3 = 0.005428 | 1.254
x1 = 0.0003978, x3 = 0.003572 | 1.116
x1 = 0.000437, x3 = 0.007127 | 1.398
x1 = 0.0005688, x3 = 0.001812 | 1.005
x1 = 0.0005861, x3 = 0.003571 | 1.123
x1 = 0.0005867, x3 = 0.005427 | 1.262
x1 = 0.0006133, x3 = 0.007125 | 1.404
x1 = 0.0007539, x3 = 0.001812 | 1.012
x1 = 0.0007591, x3 = 0.00357 | 1.129
x1 = 0.0007841, x3 = 0.005426 | 1.269
x1 = 0.0008175, x3 = 0.007124 | 1.409
x1 = 0.0009408, x3 = 0.001811 | 1.018
x1 = 0.0009549, x3 = 0.00357 | 1.133
x1 = 0.0009897, x3 = 0.007123 | 1.418
x1 = 0.000999, x3 = 0.005425 | 1.276
x1 = 0.001114, x3 = 0.003569 | 1.136
x1 = 0.001117, x3 = 0.001811 | 1.021
x1 = 0.001181, x3 = 0.005424 | 1.28
x1 = 0.001198, x3 = 0.007121 | 1.427
x1 = 0.00132, x3 = 0.001811 | 1.023
x1 = 0.001321, x3 = 0.003568 | 1.143
x1 = 0.00137, x3 = 0.005423 | 1.286
x1 = 0.001406, x3 = 0.00712 | 1.433
x1 = 0.00149, x3 = 0.00181 | 1.03
x1 = 0.001525, x3 = 0.003568 | 1.149
x1 = 0.001559, x3 = 0.005422 | 1.292
x1 = 0.001622, x3 = 0.007118 | 1.441
x1 = 0.001679, x3 = 0.00181 | 1.037
x1 = 0.001728, x3 = 0.003567 | 1.158
x1 = 0.001768, x3 = 0.005421 | 1.3
x1 = 0.001812, x3 = 0.007117 | 1.449

OC1OC[C@@H](O)[C@H](O)[C@H]1O (stereo not given in full) + O + CCCCCCCCn1cc[n+](C)c1.[Br-]
298.15 K
Conditions | viscosity [mPa·s]
x1 = 0.0001923, x3 = 0.001831 | 0.966
x1 = 0.0001932, x3 = 0.003598 | 1.027
x1 = 0.0002045, x3 = 0.00713 | 1.178
x1 = 0.0002136, x3 = 0.005442 | 1.104
x1 = 0.0003697, x3 = 0.00183 | 0.97
x1 = 0.0003826, x3 = 0.003597 | 1.03
x1 = 0.0004154, x3 = 0.005441 | 1.11
x1 = 0.00056, x3 = 0.00183 | 0.976
x1 = 0.0005832, x3 = 0.003596 | 1.035
x1 = 0.000592, x3 = 0.00544 | 1.115
x1 = 0.0006052, x3 = 0.007127 | 1.189
x1 = 0.0007465, x3 = 0.00183 | 0.981
x1 = 0.0007705, x3 = 0.003595 | 1.04
x1 = 0.0007917, x3 = 0.005439 | 1.121
x1 = 0.0008153, x3 = 0.007126 | 1.195
x1 = 0.0009407, x3 = 0.003595 | 1.044
x1 = 0.0009495, x3 = 0.001829 | 0.985
x1 = 0.0009701, x3 = 0.005438 | 1.127
x1 = 0.0009957, x3 = 0.007124 | 1.202
x1 = 0.001112, x3 = 0.001829 | 0.989
x1 = 0.001145, x3 = 0.003594 | 1.051
x1 = 0.00115, x3 = 0.005437 | 1.13
x1 = 0.001216, x3 = 0.007123 | 1.207
x1 = 0.001289, x3 = 0.001829 | 0.993
x1 = 0.001332, x3 = 0.003593 | 1.054
x1 = 0.00134, x3 = 0.005436 | 1.135
x1 = 0.00141, x3 = 0.007121 | 1.213
x1 = 0.001459, x3 = 0.001828 | 0.996
x1 = 0.00151, x3 = 0.003593 | 1.059
x1 = 0.00153, x3 = 0.005435 | 1.14
x1 = 0.001602, x3 = 0.00712 | 1.219
x1 = 0.001647, x3 = 0.001828 | 1
x1 = 0.001708, x3 = 0.003592 | 1.065
x1 = 0.001741, x3 = 0.005433 | 1.147
x1 = 0.001813, x3 = 0.007119 | 1.224

OC1OC[C@@H](O)[C@H](O)[C@H]1O (stereo not given in full) + O + CCCCCC[n+]1ccn(C)c1.[Br-]
298.15 K
Conditions | viscosity [mPa·s]
x1 = 0.0001973, x3 = 0.001843 | 0.957
x1 = 0.000198, x3 = 0.003653 | 1.007
x1 = 0.0002099, x3 = 0.005424 | 1.054
x1 = 0.0002123, x3 = 0.007151 | 1.106
x1 = 0.0003779, x3 = 0.001843 | 0.961
x1 = 0.0003808, x3 = 0.003652 | 1.011
x1 = 0.0003928, x3 = 0.005423 | 1.059
x1 = 0.0004009, x3 = 0.00715 | 1.112
x1 = 0.0005548, x3 = 0.001843 | 0.965
x1 = 0.000588, x3 = 0.003652 | 1.016
x1 = 0.0005968, x3 = 0.005422 | 1.064
x1 = 0.0005973, x3 = 0.007149 | 1.119
x1 = 0.000739, x3 = 0.001842 | 0.97
x1 = 0.0007594, x3 = 0.003651 | 1.02
x1 = 0.0007857, x3 = 0.007147 | 1.124
x1 = 0.0007911, x3 = 0.005421 | 1.069
x1 = 0.0009323, x3 = 0.001842 | 0.974
x1 = 0.0009495, x3 = 0.00365 | 1.025
x1 = 0.0009642, x3 = 0.00542 | 1.074
x1 = 0.0009957, x3 = 0.007146 | 1.13
x1 = 0.001116, x3 = 0.001842 | 0.979
x1 = 0.001147, x3 = 0.005419 | 1.079
x1 = 0.001153, x3 = 0.003649 | 1.029
x1 = 0.001184, x3 = 0.007144 | 1.134
x1 = 0.0013, x3 = 0.001841 | 0.982
x1 = 0.001326, x3 = 0.003649 | 1.034
x1 = 0.001352, x3 = 0.005418 | 1.083
x1 = 0.001359, x3 = 0.007143 | 1.138
x1 = 0.001475, x3 = 0.001841 | 0.986
x1 = 0.001497, x3 = 0.003648 | 1.039
x1 = 0.001552, x3 = 0.005417 | 1.089
x1 = 0.001588, x3 = 0.007142 | 1.143
x1 = 0.001657, x3 = 0.001841 | 0.99
x1 = 0.001681, x3 = 0.003648 | 1.042
x1 = 0.001708, x3 = 0.005416 | 1.09
x1 = 0.001731, x3 = 0.00714 | 1.148

CCCCn1cc[n+](C)c1C.O=S(=O)([N-]S(=O)(=O)C(F)(F)F)C(F)(F)F + O=C1CCCO1
Conditions | electrical conductivity [S/m]
293.15 K, x2 = 0.1014 | 0.207
293.15 K, x2 = 0.3 | 0.302
293.15 K, x2 = 0.8001 | 1.12
298.15 K, x2 = 0.8996 | 1.3
303.15 K, x2 = 0.3 | 0.451
303.15 K, x2 = 0.9468 | 1.01
308.15 K, x2 = 0.3 | 0.538
308.15 K, x2 = 0.7012 | 1.28
313.15 K, x2 = 0.1014 | 0.479
313.15 K, x2 = 0.7012 | 1.43
318.15 K, x2 = 0 | 0.51
318.15 K, x2 = 0.7012 | 1.58
323.15 K, x2 = 0 | 0.599
